Measured values as given in patent US11535592B2, “Antimicrobial compounds, compositions, and method” (University of Kentucky Research Foundation, priority 2019, dated 2022).
Where two headings read alike, the source gives them in different places. Values belong to the compound of their own block, whether it stands above or below them.

Assays:
[1] = system: Porphyromonas gingivalis 381; assay: Antimicrobial screening by colorimetric WST-1 assay against P. gingivalis; type: cell-based; conditions: P. gingivalis 381, FIG. 2, read-out: growth inhibition
Description: (§1) The following bacterial strains were used in these studies: Porphyromonas gingivalis 381, Actinomyces naeslundii ATCC 49340, Streptococcus sanguinis ATCC 10556, Veillonella parvula ATCC 10790, Aggregatibacter actinomycetemcomitans JP2, and Fusobacterium nucleatum ATCC 25586. All bacterial strains were initially grown on blood agar plates (BBL, Becton Dickinson, Sparks, Md., USA) from a frozen stock and incubated in appropriate aerobic (for S. sanguinis) or anaerobic (for P. gingivalis, A. naeslundii, V. parvula, A. actinomycetemcomitans, and F. nucleatum) conditions at 37° C. for 24 h or 3 days, respectively. Then, a liquid culture was started for each strain in 3 mL of Brain Hearth infusion (BHI) broth alone or supplemented with 5 μg/mL of hemin and 1 μg/mL of menadione in the case of P. gingivalis. Overnight cultures were inoculated in fresh broth and allowed to reach logarithmic growth for 3-4 h, time at which antimicrobial activity of different treatments was evaluated.
Initial screening for testing the antimicrobial effect of zafirlukast derivatives (4a, 4b, 11a, 11b, 12a, 21a, 21b, 22a, 22b, 23a, and 23b) was performed using the colorimetric water-soluble tetrazolium-1 (WST-1) assay, which serves as a surrogate marker for cell proliferation and viability. Bacterial strains (10^6/well) grown logarithmically in broth (90 μL) using 96-wells plates, were exposed to different treatments for 2 h and then 15 μL of WST-1 reagent (Roche, Manheim, Germany) were added to each well. Plates were incubated for 2 h under appropriate culture conditions and then absorbance was measured at 450 nm, with a reference wavelength of 600 nm, using SpectraMax M2 plate reader (Molecular Devices, Sunnyvale, Calif., USA). The percentage of inhibitory effect (i.e., % growth inhibition) was calculated using the optical densities (ODs) of bacterial metabolic activity, under different experimental conditions according to the following formula: 100×[OD (control)−OD (experimental)/OD (control)]. For P. gingivalis, control cultures were treated only with medium and experimental cultures treated with DMSO (vehicle for zafirlukast and its derivatives) and 1 μg/mL of the antibiotic tetracycline. When tested against A. naeslundii, A. actinomycetemcomitans, S. sanguinis, V. parvula, and F. nucleatum control cultures were treated only with medium and experimental cultures were treated with DMSO (vehicle for zafirlukast and its derivatives), antibiotic penicillin/streptomycin −1× (100 U/mL of penicillin and 100 μg/mL of streptomycin) for Gram-positives and 1 μg/mL of tetracycline for Gram-negative anaerobic bacteria.

[2] = system: OKF6 oral epithelial cells (OKF6/hTERT); assay: cells; type: cell-based; conditions: 24 h; for IC50: Homo sapiens, OKF6; for Dead (%) / Percentage of OKF6 cells alive / Alive (%): human
Description: Cytotoxic effect of zafirlukast derivatives in oral epithelial cells. The immortalized oral keratinocyte cell line OKF6/hTERT (OKF6) was used for viability assays in response to zafirlukast derivatives 22b, 23a, and 23b as previously reported. 3, ^4 Cells were cultured in keratinocyte-serum free medium (SFM) supplemented with bovine pituitary extract (25 μg/mL) and recombinant epidermal growth factor (0.2 ng/mL) (Ker-SFM). Cells were maintained at 37° C. in a humidified incubator with 5% CO2.
[…] Cells were then harvested by trypsinization, washed with DMEM medium supplemented with 5% fetal bovine serum at 1100 rpm and resuspended in fresh Ker-SFM. Equal volumes of cell suspension and trypan blue were mixed and 10 μL evaluated in the automated cell counter (Countess II FL) (Life Technologies, Singapure) to determine percentage of alive and death cells. These experiments were performed in two independent experiments by duplicate. […] The IC50 values were calculated by using the Quest Graph™ IC50 calculator (ATT Bioquest, Inc, https://www.aatbio.com/tools/ic50-calculator).

[3] = system: OKF6 oral epithelial cells (OKF6/hTERT); assay: Cell viability of oral epithelial cells (apoptosis and necrosis) by flow cytometry, FITC-Annexin V / propidium iodide; type: cell-based, human; conditions: 24 h
Description: Cytotoxic effect of zafirlukast derivatives in oral epithelial cells. The immortalized oral keratinocyte cell line OKF6/hTERT (OKF6) was used for viability assays in response to zafirlukast derivatives 22b, 23a, and 23b as previously reported. 3, ^4 Cells were cultured in keratinocyte-serum free medium (SFM) supplemented with bovine pituitary extract (25 μg/mL) and recombinant epidermal growth factor (0.2 ng/mL) (Ker-SFM). Cells were maintained at 37° C. in a humidified incubator with 5% CO2. Cytotoxic effects of zafirlukast derivatives were confirmed by flow cytometry analysis (FACS). After different treatments, attached OKF6 cells were harvested by trypsinization and mixed with cells that were previously rescued from supernatants. Cells were washed with PBS at 1100 rpm for 5 min and further labeled with 5 μL of FITC-Annexin V and 5 μL of propidium iodide (BD Pharmingen, San Jose, Calif.) for 15 min at room temperature. Labeled cells were analyzed by FACS, with at least 10,000 events read at wavelengths averaging 488 nm for excitation and 530 nm for emission in a flow cytometer FACSCalibur (Becton Dickinson, San Jose, Calif.).

[4] = system: Porphyromonas gingivalis 381; assay: Bactericidal effect on P. gingivalis by colony forming units (CFU) assay; type: cell-based; conditions: 24 h exposure, 7 days incubation, FIG. 4; for bacteriostatic or bactericidal: 100 μM, CFU
Description: as §1
P. gingivalis (10^6/well) grown in appropriate medium and anaerobic conditions was exposed to zafirlukast derivatives dissolved in DMSO for 24 h and further 50 μL of bacterial culture dilutions (1:400) were spread onto blood agar plates. Numbers of CFUs were obtained after 7 days of incubation in appropriate anaerobic conditions.

[5] = 0-100 μM in triplicate, Quest Graph IC50 calculator, read-out: IC50 (OKF6 cell viability)

Structure (SMILES): COc1cc(C(=O)NS(=O)(=O)c2ccccc2)ccc1Cc1cn(C)c2ccccc12 [Compound 4a]
inhibition at 100 µM [1]: > 60%

Structure (SMILES): COc1cc(C(=O)NS(=O)(=O)c2ccccc2C)ccc1Cc1cn(C)c2ccccc12 [Compound 4b]
inhibition at 100 µM [1]: > 60%

Structure (SMILES): O=C(NS(=O)(=O)c1ccccc1)c1ccc(Cc2c[nH]c3ccccc23)cc1 [Compound 11a]
inhibition at 10 µM [1]: ~40%

Structure (SMILES): Cc1ccccc1S(=O)(=O)NC(=O)c1ccc(Cc2c[nH]c3ccccc23)cc1 [Compound 11b]
inhibition at 10 µM [1]: ~90%

Structure (SMILES): Cn1cc(Cc2ccc(C(=O)NS(=O)(=O)c3ccccc3)cc2)c2ccccc21 [Compound 12a]
inhibition at 10 µM [1]: 90 to 100%

Structure (SMILES): COc1ccc(Cc2c[nH]c3ccccc23)cc1C(=O)NS(=O)(=O)c1ccccc1 [Compound 21a]
inhibition at 10 µM [1]: ~40%

Structure (SMILES): COc1ccc(Cc2c[nH]c3ccccc23)cc1C(=O)NS(=O)(=O)c1ccccc1C [Compound 21b]
inhibition at 10 µM [1]: ~80%

Dead (%) ([2]; 1 μM): 8.5 ± 1.7% | Percentage of OKF6 cells alive ([2]; 1 μM): 69.3 ± 9.6% | Percentage of OKF6 cells alive ([2]; 2.5 μM): 41.0 ± 1.0% | Percentage of OKF6 cells alive ([2]; 5 μM): 66.0 ± 5.6% | Alive (%) ([2]; 10 μM): 40.8 ± 16.6% | Dead (%) ([2]; 10 μM): 59.3 ± 16.6% | Percentage of OKF6 cells alive ([2]; 10 μM): 38.3 ± 4.9% | Percentage of OKF6 cells alive ([2]; 15 μM): 41.0 ± 17.3% | Percentage of OKF6 cells alive ([2]; 20 μM): 22.7 ± 11.7% | Percentage of OKF6 cells alive ([2]; 25 μM): 47.0 ± 20.0% | Percentage of OKF6 cells alive ([2]; 50 μM): 33.0 ± 15.1% | Percentage of OKF6 cells alive ([2]; 100 μM): 12.3 ± 11.0%
Structure (SMILES): COc1ccc(Cc2cn(C)c3ccccc23)cc1C(=O)NS(=O)(=O)c1ccccc1C [Compound 22b]
inhibition at 1 µM [1]: 15 to 40% | inhibition at 10 µM [1]: 90 to 100% | IC50 [2, 5]: 16 µM | Apoptosis (%) ([3]; human, 1 μM): 23.7 ± 16.6% | Necrosis (%) ([3]; human, 1 μM): 2.16 ± 1.62% | Viable ([3]; human, 1 μM): 74.1 ± 18.1% | Apoptosis (%) ([3]; human, 10 μM): 29.6 ± 19.1% | Necrosis (%) ([3]; human, 10 μM): 1.37 ± 0.39% | Viable ([3]; human, 10 μM): 69.1 ± 18.9%

Dead (%) ([2]; 1 μM): 20.5 ± 16.4% | Percentage of OKF6 cells alive ([2]; 1 μM): 68.0 ± 5.0% | Percentage of OKF6 cells alive ([2]; 2.5 μM): 70.7 ± 10.3% | Percentage of OKF6 cells alive ([2]; 5 μM): 55.3 ± 8.1% | Alive (%) ([2]; 10 μM): 73.8 ± 4.1% | Dead (%) ([2]; 10 μM): 26.3 ± 4.1% | Percentage of OKF6 cells alive ([2]; 10 μM): 49.0 ± 16.1% | Percentage of OKF6 cells alive ([2]; 15 μM): 50.3 ± 9.5% | Percentage of OKF6 cells alive ([2]; 20 μM): 48.0 ± 6.1% | Percentage of OKF6 cells alive ([2]; 25 μM): 54.0 ± 7.8% | Percentage of OKF6 cells alive ([2]; 50 μM): 45.3 ± 13.1% | Percentage of OKF6 cells alive ([2]; 100 μM): 15.7 ± 7.1%
Structure (SMILES): COc1ccc(Cc2cn(C)c3ccc([N+](=O)[O-])cc23)cc1C(=O)NS(=O)(=O)c1ccccc1 [Compound 23a]
inhibition at 1 µM [1]: 15 to 40% | inhibition at 10 µM [1]: 90 to 100% | bacteriostatic or bactericidal [4]: bactericidal | inhibition at 1 µM ([4]; Porphyromonas gingivalis, 381, 1 μM, read-out: growth inhibition (CFU)): ~60% | inhibition at 10 µM ([4]; Porphyromonas gingivalis, 381, 10 μM, read-out: growth inhibition (CFU)): 100% | IC50 [2, 5]: 54 µM | Apoptosis (%) ([3]; human, 1 μM): 38.5 ± 27.5% | Necrosis (%) ([3]; human, 1 μM): 0.69 ± 0.46% | Viable ([3]; human, 1 μM): 60.9 ± 27.4% | Apoptosis (%) ([3]; human, 10 μM): 44.2 ± 26.9% | Necrosis (%) ([3]; human, 10 μM): 2.81 ± 2.31% | Viable ([3]; human, 10 μM): 53.2 ± 29.0%

Dead (%) ([2]; 1 μM): 17.3 ± 9.5% | Percentage of OKF6 cells alive ([2]; 1 μM): 83.7 ± 9.1% | Percentage of OKF6 cells alive ([2]; 2.5 μM): 87.7 ± 3.8% | Percentage of OKF6 cells alive ([2]; 5 μM): 87.0 ± 2.6% | Alive (%) ([2]; 10 μM): 48.3 ± 17.5% | Dead (%) ([2]; 10 μM): 51.8 ± 17.5% | Percentage of OKF6 cells alive ([2]; 10 μM): 83.0 ± 5.3% | Percentage of OKF6 cells alive ([2]; 15 μM): 79.0 ± 5.3% | Percentage of OKF6 cells alive ([2]; 20 μM): 75.3 ± 3.8% | Percentage of OKF6 cells alive ([2]; 25 μM): 77.0 ± 2.6% | Percentage of OKF6 cells alive ([2]; 50 μM): 69.0 ± 7.5% | Percentage of OKF6 cells alive ([2]; 100 μM): 58.7 ± 4.2%
Structure (SMILES): COc1ccc(Cc2cn(C)c3ccc([N+](=O)[O-])cc23)cc1C(=O)NS(=O)(=O)c1ccccc1C [Compound 23b]
inhibition at 1 µM [1]: 15 to 40% | inhibition at 10 µM [1]: 90 to 100% | bacteriostatic or bactericidal [4]: bactericidal | IC50 [2, 5]: > 100 µM | IC50 ([2]; estimated beyond the highest concentration tested (100 μM), read-out: IC50 (OKF6 cell viability), estimated): ~230 µM | Apoptosis (%) ([3]; human, 1 μM): 24.8 ± 13.9% | Necrosis (%) ([3]; human, 1 μM): 1.08 ± 0.17% | Viable ([3]; human, 1 μM): 74.4 ± 13.8% | Apoptosis (%) ([3]; human, 10 μM): 35.8 ± 21.3% | Necrosis (%) ([3]; human, 10 μM): 2.23 ± 1.18% | Viable ([3]; human, 10 μM): 61.7 ± 22.2%

Alive (%) ([2]; 25 μM): 17.3 ± 5.2% | Dead (%) ([2]; 25 μM): 82.8 ± 5.2%
Structure (SMILES): COc1cc(C(=O)NS(=O)(=O)c2ccccc2C)ccc1Cc1cn(C)c2ccc(NC(=O)OC3CCCC3)cc12 [Zafirlukast, zafirlukast, reference compound]
Apoptosis (%) ([3]; 25 μM, FACS (Table 3, FIG. 7)): 90.8 ± 2.5% | Necrosis (%) ([3]; 25 μM, FACS (Table 3, FIG. 7)): 0.65 ± 0.58% | Viable ([3]; 25 μM, FACS (Table 3, FIG. 7)): 8.53 ± 3.08%
